Laboratory results as given in patent US20030237103A1, “Methods and compositions for pharmacological and toxicological evaluation of test agents” (priority 2002, published 2003).

System: Panel, parental and outbred (CD-IGS) rat strains
Assay: Clinical chemistry endpoints of gentamicin-treated vs. vehicle rats
Details: for T-test value ALB / T-test value ALP / T-test value ALT / T-test value ANION GAP / T-test value AST / T-test value BICARB / T-test value BUN / T-test value CA / T-test value CHOL / T-test value CREAT / T-test value GGT / T-test value GLOB / T-test value GLU / T-test value K / T-test value NA / T-test value PHOS / T-test value TBIL / T-test value TP / T-test value TRIG: 240 mg/Kg gentamicin vs. vehicle
Excerpt: Percent increase is defined as[(mean drug—mean vehicle control)/mean vehicle control×100] for each strain tested. The number of animals tested in each group is noted below the strain designation in parenthesis as #drug treated animals per #vehicle treated animals.
We sought to maximize the range of genetic susceptibility to the adverse drug effects across the strains.

gentamicin
nephrotoxic phenotypes at the first dose (120 mg/kg gentamicin, all strains (not shown)): did not produce a robust set of phenotypes, except in LEW rats
T-test value ALB (BN rats): 0.028
T-test value ALP (BN rats): 0.040
T-test value ALT (BN rats): 0.618
T-test value ANION GAP (BN rats): 0.369
T-test value AST (BN rats): 0.110
T-test value BICARB (BN rats): 0.642
T-test value BUN (BN rats): 0.003
T-test value CA (BN rats): 0.460
T-test value CHOL (BN rats): 0.092
T-test value CREAT (BN rats): 0.005
T-test value GGT (BN rats): 0.121
T-test value GLOB (BN rats): 0.517
T-test value GLU (BN rats): 0.937
T-test value K (BN rats): 0.264
T-test value NA (BN rats): 0.036
T-test value PHOS (BN rats): 0.021
T-test value TBIL (BN rats): 0.040
T-test value TP (BN rats): 0.133
T-test value TRIG (BN rats): 0.042
T-test value ALB (BNxF344 rats): 0.089
T-test value ALP (BNxF344 rats): 0.000
T-test value ALT (BNxF344 rats): 0.171
T-test value ANION GAP (BNxF344 rats): 0.770
T-test value AST (BNxF344 rats): 0.005
T-test value BICARB (BNxF344 rats): 0.765
T-test value BUN (BNxF344 rats): 0.000
T-test value CA (BNxF344 rats): 0.397
T-test value CHOL (BNxF344 rats): 0.216
T-test value CREAT (BNxF344 rats): 0.000
T-test value GLOB (BNxF344 rats): 0.165
T-test value GLU (BNxF344 rats): 0.434
T-test value K (BNxF344 rats): 0.899
T-test value NA (BNxF344 rats): 0.128
T-test value PHOS (BNxF344 rats): 0.657
T-test value TBIL (BNxF344 rats): 0.745
T-test value TP (BNxF344 rats): 0.802
T-test value TRIG (BNxF344 rats): 0.000
T-test value ALB (CD-IGS rats): 0.493
T-test value ALP (CD-IGS rats): 0.312
T-test value ALT (CD-IGS rats): 0.714
T-test value ANION GAP (CD-IGS rats): 0.222
T-test value AST (CD-IGS rats): 0.740
T-test value BICARB (CD-IGS rats): 0.030
T-test value BUN (CD-IGS rats): 0.013
T-test value CA (CD-IGS rats): 0.078
T-test value CHOL (CD-IGS rats): 0.742
T-test value CREAT (CD-IGS rats): 0.024
T-test value GGT (CD-IGS rats): 0.331
T-test value GLOB (CD-IGS rats): 0.252
T-test value GLU (CD-IGS rats): 0.104
T-test value K (CD-IGS rats): 0.229
T-test value NA (CD-IGS rats): 0.138
T-test value PHOS (CD-IGS rats): 0.620
T-test value TBIL (CD-IGS rats): 0.720
T-test value TP (CD-IGS rats): 0.807
T-test value TRIG (CD-IGS rats): 0.946
T-test value ALB (F344 rats): 0.002
T-test value ALP (F344 rats): 0.017
T-test value ALT (F344 rats): 0.108
T-test value ANION GAP (F344 rats): 0.428
T-test value AST (F344 rats): 0.304
T-test value BICARB (F344 rats): 0.080
T-test value BUN (F344 rats): 0.015
T-test value CA (F344 rats): 0.637
T-test value CHOL (F344 rats): 0.811
T-test value CREAT (F344 rats): 0.006
T-test value GGT (F344 rats): 0.363
T-test value GLOB (F344 rats): 0.170
T-test value GLU (F344 rats): 0.169
T-test value K (F344 rats): 0.287
T-test value NA (F344 rats): 0.020
T-test value PHOS (F344 rats): 0.350
T-test value TBIL (F344 rats): 0.969
T-test value TP (F344 rats): 0.000
T-test value TRIG (F344 rats): 0.052
T-test value ALB (LEW rats): 0.015
T-test value ALP (LEW rats): 0.419
T-test value ALT (LEW rats): 0.080
T-test value ANION GAP (LEW rats): 0.283
T-test value AST (LEW rats): 0.754
T-test value BICARB (LEW rats): 0.061
T-test value BUN (LEW rats): 0.002
T-test value CA (LEW rats): 0.000
T-test value CHOL (LEW rats): 0.007
T-test value CREAT (LEW rats): 0.006
T-test value GLOB (LEW rats): 0.167
T-test value GLU (LEW rats): 0.318
T-test value K (LEW rats): 0.349
T-test value NA (LEW rats): 0.361
T-test value PHOS (LEW rats): 0.203
T-test value TBIL (LEW rats): 0.648
T-test value TP (LEW rats): 0.102
T-test value TRIG (LEW rats): 0.405
T-test value ALB (LEWxBN rats): 0.081
T-test value ALP (LEWxBN rats): 0.005
T-test value ALT (LEWxBN rats): 0.293
T-test value ANION GAP (LEWxBN rats): 0.071
T-test value AST (LEWxBN rats): 0.417
T-test value BICARB (LEWxBN rats): 0.076
T-test value BUN (LEWxBN rats): 0.001
T-test value CA (LEWxBN rats): 0.000
T-test value CHOL (LEWxBN rats): 0.533
T-test value CREAT (LEWxBN rats): 0.002
T-test value GLOB (LEWxBN rats): 0.419
T-test value GLU (LEWxBN rats): 0.016
T-test value K (LEWxBN rats): 0.145
T-test value NA (LEWxBN rats): 0.955
T-test value PHOS (LEWxBN rats): 0.431
T-test value TBIL (LEWxBN rats): 0.060
T-test value TP (LEWxBN rats): 0.434
T-test value TRIG (LEWxBN rats): 0.037
T-test value ALB (LEWxF344 rats): 0.071
T-test value ALP (LEWxF344 rats): 0.144
T-test value ALT (LEWxF344 rats): 0.380
T-test value ANION GAP (LEWxF344 rats): 0.157
T-test value AST (LEWxF344 rats): 0.375
T-test value BICARB (LEWxF344 rats): 0.114
T-test value BUN (LEWxF344 rats): 0.019
T-test value CA (LEWxF344 rats): 0.777
T-test value CHOL (LEWxF344 rats): 0.889
